Article PMC13026664, “Transcriptional Activation of Estrogen Receptor-Alpha and Estrogen Receptor-Beta from Elephant Shark (Callorhynchus milii)” (Genes, 2026)

Experiments:
Atlantic sea lamprey ER = settings: cited from earlier work
elephant shark ERb = biological target: T1, elephant shark ERb (Callorhinchus milii, UniProt A0A1V1FJE9); experiment: cell-based
T1 sequence (A0A1V1FJE9 1-580): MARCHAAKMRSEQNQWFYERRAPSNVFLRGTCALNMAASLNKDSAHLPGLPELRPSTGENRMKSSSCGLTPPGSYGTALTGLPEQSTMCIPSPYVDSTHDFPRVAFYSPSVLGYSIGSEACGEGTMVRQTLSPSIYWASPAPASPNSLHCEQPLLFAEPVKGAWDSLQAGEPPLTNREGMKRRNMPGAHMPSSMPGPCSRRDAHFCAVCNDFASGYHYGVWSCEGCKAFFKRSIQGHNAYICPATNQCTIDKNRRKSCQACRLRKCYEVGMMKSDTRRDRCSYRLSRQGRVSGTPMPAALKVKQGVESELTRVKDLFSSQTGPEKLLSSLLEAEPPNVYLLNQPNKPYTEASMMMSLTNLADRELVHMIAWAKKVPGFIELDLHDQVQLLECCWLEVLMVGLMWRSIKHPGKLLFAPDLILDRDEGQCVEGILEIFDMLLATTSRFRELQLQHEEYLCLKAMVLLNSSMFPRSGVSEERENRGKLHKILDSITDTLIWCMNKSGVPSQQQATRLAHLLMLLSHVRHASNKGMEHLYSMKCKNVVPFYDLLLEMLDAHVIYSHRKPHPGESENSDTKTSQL
Experimental: (§1) Full-length estrogen receptors were amplified using specific forward and reverse primers designed at start and stop codons and cloned into the mammalian expression vector pcDNA3.1 (Invitrogen). In addition, ERs with a FLAG-tag added to the N-terminus were also prepared by PCR. A reporter construct, pGL4.23-4xERE, was produced by subcloning of oligonucleotides having 4xERE into the KpnI-HindIII site of pGL4.23 vector (Promega, Madison, WI, USA). All cloned DNA sequences were verified by sequencing.
(§2) Reporter gene assays using full-length ERs were performed in Human Embryonic Kidney 293 cells (HEK293 cells). HEK293 cells were seeded in 24-well plates at 5 × 10^4 cells/well in phenol-red-free Dulbecco’s modified Eagle’s medium with 10% charcoal/dextran-treated fetal bovine serum. After 24 h, the cells were transfected with 400 ng of reporter construct, 25 ng of pRL-TK (as an internal control to normalize the variation in transfection efficiency; contains the Renilla reniformis luciferase gene with the herpes simplex virus thymidine kinase promoter), and 200 ng of pcDNA3.1-estrogen receptor using polyethylenimine (PEI). After 5 h of incubation, ligands were applied to the medium at various concentrations. After an additional 43 h, the cells were collected, and the luciferase activity of the cells was measured with the Dual-Luciferase Reporter Assay System. Promoter activity was calculated as firefly (Photinus pyralis) luciferase activity/sea pansy (R. reniformis) luciferase activity. […] All experiments were performed in triplicate.
(§3) Elephant shark ERs were transfected into HEK293 cells with an ERE-driven reporter gene. […] Data are expressed as a ratio of a vehicle (DMSO) to other test chemicals. Each point represents the mean of triplicate determinations, and vertical bars represent the mean ± SEM.

[1] = tested on: amphioxus steroid receptor (SR); settings: cited from earlier work
elephant shark ERa4 = experiment: Transcriptional activation of ERa4; type: cell-based, elephant shark (Callorhynchus milii); settings: ERa4 has a deletion in the DNA-binding domain
Experimental: as §1
Reporter gene assays using full-length ERs were performed in Human Embryonic Kidney 293 cells (HEK293 cells). HEK293 cells were seeded in 24-well plates at 5 × 10^4 cells/well in phenol-red-free Dulbecco’s modified Eagle’s medium with 10% charcoal/dextran-treated fetal bovine serum. […] After an additional 43 h, the cells were collected, and the luciferase activity of the cells was measured with the Dual-Luciferase Reporter Assay System. Promoter activity was calculated as firefly (Photinus pyralis) luciferase activity/sea pansy (R. reniformis) luciferase activity. The values shown are mean ± SEM from three separate experiments, and dose–response data, which were used to calculate the half-maximal response (EC50) for each steroid, were analyzed using GraphPad Prism (Version 11, GraphPad Software, Inc., San Diego, CA, USA). […]

amphioxus ER = settings: cited from earlier work
elephant shark ERa1 = biological target: T2, elephant shark ERa1 (Callorhinchus milii, UniProt A0A1V1FR36); experiment: cell-based
T2 sequence (A0A1V1FR36 1-596): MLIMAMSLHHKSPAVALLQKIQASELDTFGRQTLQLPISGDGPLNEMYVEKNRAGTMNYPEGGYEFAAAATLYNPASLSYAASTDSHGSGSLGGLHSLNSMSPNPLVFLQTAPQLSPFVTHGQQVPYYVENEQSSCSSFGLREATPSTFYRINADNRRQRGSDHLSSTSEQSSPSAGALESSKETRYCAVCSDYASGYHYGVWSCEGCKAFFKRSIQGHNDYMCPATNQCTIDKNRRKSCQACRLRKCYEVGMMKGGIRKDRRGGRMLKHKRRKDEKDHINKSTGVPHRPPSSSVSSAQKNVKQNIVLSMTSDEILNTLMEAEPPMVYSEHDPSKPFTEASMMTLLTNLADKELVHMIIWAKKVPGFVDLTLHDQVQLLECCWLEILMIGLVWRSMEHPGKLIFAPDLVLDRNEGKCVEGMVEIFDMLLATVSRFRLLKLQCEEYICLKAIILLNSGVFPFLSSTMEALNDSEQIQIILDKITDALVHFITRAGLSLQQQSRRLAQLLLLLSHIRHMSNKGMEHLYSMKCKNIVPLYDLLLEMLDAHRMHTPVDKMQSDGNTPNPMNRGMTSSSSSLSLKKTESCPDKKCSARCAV
Experimental: as §1, §2, §3

elephant shark ERa3 = biological target: T3, elephant shark ERa3 (Callorhinchus milii, UniProt A0A1V1FR36)
T3 sequence (A0A1V1FR36 1-596): T2 sequence (A0A1V1FR36 1-596)
Experimental: as §1, §2, §3

elephant shark ERa2 = biological target: T4, elephant shark ERa2 (Callorhinchus milii, UniProt A0A1V1FR36)
T4 sequence (A0A1V1FR36 1-596): T2 sequence (A0A1V1FR36 1-596)
Experimental: as §1, §2, §3

[2] = HEK293, 43 h, read-out: Fold-Activation (±SEM)

Row | SMILES | Activation of Atlantic sea lamprey ER (Atlantic sea lamprey ER) | EC50 (elephant shark ERb) | Transcriptional activation of amphioxus SR [1] | Transcriptional activation of ERa4 (elephant shark ERa4) | Binding to amphioxus ER (amphioxus ER) | EC50 (elephant shark ERa1) | Ratio (fold-activation of each estrogen divided by the value of E2) (elephant shark ERa1; ERa1 in HEK293, 10 nM) | fold induction at 0.01 µM (elephant shark ERa1; [2]) | Ratio (fold-activation of each estrogen divided by the value of E2) (elephant shark ERb; ERb in HEK293, 10 nM) | fold induction at 0.01 µM (elephant shark ERb; [2]) | Ratio (fold-activation of each estrogen divided by the value of E2) (elephant shark ERa3; ERa3 in HEK293, 10 nM) | Fold-Activation (±SEM) (elephant shark ERa3; ERa3 in HEK293, based on the 10 nM values, ratio to vehicle (DMSO), 2580 min) | EC50 (elephant shark ERa3; read-out: EC50 for transcriptional activation, ERa3 in HEK293, 4xERE luciferase reporter) | Ratio (fold-activation of each estrogen divided by the value of E2) (elephant shark ERa2; ERa2 in HEK293, 10 nM) | Fold-Activation (±SEM) (elephant shark ERa2; ERa2 in HEK293, based on the 10 nM values, ratio to vehicle (DMSO), 2580 min) | EC50 (elephant shark ERa2; read-out: EC50 for transcriptional activation, ERa2 in HEK293, 4xERE luciferase reporter)
1 | C[C@]12CC[C@@H]3c4ccc(O)cc4CC[C@H]3[C@@H]1CCC2=O [E1, Estrone] | activated | 0.14 nM | transcriptional activators |  |  |  |  |  |  |  |  |  |  |  |  | 
2 | C[C@]12CC[C@@H]3c4ccc(O)cc4CC[C@H]3[C@@H]1CC[C@@H]2O [E2, 17b-estradiol] | activated |  | transcriptional activators | lack of transcriptional activation | does not bind |  |  |  |  |  |  |  |  |  |  | 
3 | C[C@]12CC[C@@H]3c4ccc(O)cc4CC[C@H]3[C@@H]1C[C@@H](O)[C@@H]2O [E3, estriol] |  | 0.02 nM |  |  |  | 0.2 nM | 0.95 | 1.57 | 1.08 | 3.49 | 1.07 | 1.87 (±0.15) | 0.29 nM | 1.02 | 1.82 (±0.13) | 0.31 nM
